Test results from patent US20250034139A1, “AMINE COMPOUNDS HAVING ANTI-INFLAMMATORY, ANTIFUNGAL, ANTIPARASITIC, AND ANTICANCER ACTIVITY” (PHARMA CINQ, LLC, priority 2013, published 2025).
≈ marks a conversion by molar mass, not a printed value. Like-named read-outs stand apart in the source and are kept apart here.

Assays:
[1] = system: imiquimod-induced dermatitis; conditions: for Ear thickness, Mean ± SEM: imiquimod-treated mice; for PASI Score, Mean ± SEM: scale 0-12
Method: Topical imiquimod (IMQ), a toll-like receptor agonist, has been established as a model of Inflammatory skin diseases including psoriasis and atopic dermatitis. Dermal inflammatory changes and gene expression in mice treated with topical imiquimod mimic human psoriasis and dermatitis (van der Fits et al., 2009; Swindell et al., 2011). The effect of a set of compounds of the invention were tested in a mouse model of imiquimod-induced dermatitis, with topical tacrolimus and dexamethasone as comparators for assessing safety and efficacy relative to standard agents used to treat dermatitis in humans.
Commercial 0.1% tacrolimus ointment (ProTopic™[…]) was also used as an active comparator. Petrolatum containing 10% ethanol was used as a control treatment.
Female Balb/C mice (8 weeks old) were randomized and divided into groups of 5 animals each. Polyethylene collars were affixed to the mice to prevent them from easily scratching their ears. 5% imiquimod was applied to both ears of each mouse (20 microliters per ear) daily for 5 days, and then every other day for the full duration of the study. […] On day 7 after initiation of imiquimod, treatment with topical agents was started. Both ears of each mouse were treated with test ointments, with one compound per mouse.
Ear thickness and PASI assessments (Psoriasis Area and Severity Index, a standard psoriasis scoring system) were recorded twice per week throughout the study. The PASI score comprises the sum of evaluations of swelling, erythema and scaling on scales from 0 to 4; the maximum PASI score is 12, and the minimum, in unaffected skin, is 0).

[2] = system: Cryptococcus neoformans (serotype A); assay: Example L: Cryptococcus neoformans (serotype A) growth inhibition; type: cell-based; conditions: Cryptococcus neoformans; for MIC: read-out: MIC, uM (concentration for maximum - 99% of inhibition)
Method: Cryptococcus neoformans (serotype A) were plated in 96 well plates with 144 μl/well of 5×10e5 CFU/ml in YPD growth medium. Diluted compounds were then added to each well with concentration ranged from 0.05 to 10 μM as final concentration in duplicates. The plates were inoculated at 30° C. Two readings of OD at 600 nm were measured after 18 hr and […] treatments.
C12-imidazol had relative weak activity against Cryptococcus serotype A at low concentration. Data plotted was based on 26 hour reading because 18 hour reading was too low.
• 1. Pick a single colony of Cryptococcus from the Sabouraud Dextrose agar plate using the inoculum loop and inoculate into a 125 ml flask containing 25 ml of YPD growth medium • 2. Incubate at 30° C. with shaking at 220 rpm for 24 hours with loosen lid to allow air in and facilitates growth. • 3. Examine an aliquot of the culture under a microscope for yeast cell morphology and lack of bacterial contamination. • 4. Dilute the overnight culture with YPD medium at 1:100 dilution and count the number of cells as 8×10^6 cfu/ml. • 5. Make a final concentration of cells suspension at 5×10^5 cfu/ml in YPD medium after the stock culture had been stored at 4° C. for 3 days. • 6. Plate 144 μl/well of 5×10^5 cfu/ml cell suspension on 96-well plates. Part-II: Cryptococcus Growth Inhibition Testing with Compounds • 1. From 10 mM DMSO stock solutions, make serial dilutions of compounds to 0.0013, 0.0025, 0.0125, 0.025, 0.05, 0.125 and 0.25 mM solution • 2. Add 6 ul each of diluted compound solutions per well in duplicates. The final concentrations were 0, 0.05, 0.1, 0.5, 1.0, 2.0, 5.0 and 10 micromolar. • 3. Incubated all plates at 30° C. overnight with 175 rpm shaking. • 4. Read absorbance at OD600 after 18 and 26 hours for each plate. • 5. Calculated the % inhibition and IC50 of each compound against the untreated cell.

[3] = system: Cryptococcus neoformans strains; assay: Example N: MIC and MFC (CLSI) against Cryptococcus neoformans; type: cell-based; conditions: Cryptococcus neoformans, three clinical strains; for MIC: read-out: MIC 100%, Range, incubated for 72 hrs
Method: (§1) The objective of this study was to determine the antifungal activity of eight experimental compounds against a representative panel of fungal isolates, including Candida albicans, C. glabrata, Cryptococcus neoformans, Trichophyton rubrum, Aspergillus fumigatus, and Rhizopus spp. Antifungal activity was measured by minimum inhibitory concentration (MIC) and minimum fungicidal concentration (MFC).
(§2) Three recent clinical strains of each species, taken from the culture collection at the Center for Medical Mycology, Case Western University, were tested.
(§3) Compounds in powder form were dissolved in DMSO. Serial dilutions of each compound were then prepared in RPMI-1640 in a range of […].
(§4) MIC testing was performed according to the CLSI M27-A3 and M38-A2 standards for the susceptibility testing of yeasts and filamentous fungi, respectively (1, 2). Test isolates were subcultured from frozen slants onto potato dextrose agar plates (Trichophyton rubrum was subcultured onto oatmeal plates for conidia production) and checked for purity. Inocula were then prepared in RPMI-1640 (YNB for Cryptococcus) to a concentration of 0.5-2.5×10^3 colony-forming units (CFU)/ml or 0.4-5×10^4 conidia/ml for yeast and filamentous fungi, respectively.
(§5) MFC determinations were performed according to the modifications previously described by Canton et al. and Ghannoum and Isham. (3, 4) Specifically, the total contents of each clear well from the MIC assay were subcultured onto potato dextrose agar. To avoid antifungal carryover, the aliquots were allowed to soak into the agar and then were streaked for isolation once dry, thus removing the cells from the drug source.

[4] = system: Aspergillus fumigatus strains; assay: Example N: MIC and MFC (CLSI) against Aspergillus fumigatus; type: cell-based; conditions: for MIC50 / MIC: Aspergillus fumigatus; for MIC: read-out: MIC 100%
Method: as §1, §2, §3, §4, §5

Candida albicans strains = assay: Example N: MIC and MFC (CLSI) against Candida albicans; type: cell-based; conditions: Candida albicans, three clinical strains; for MIC: read-out: MIC 100%, Range
Method: as §1, §2, §3, §4, §5

Rhizopus strains = assay: Example N: MIC and MFC (CLSI) against Rhizopus; type: cell-based, Rhizopus spp.; conditions: for MIC50 / MIC: Rhizopus; for MIC: read-out: MIC 100%
Method: as §1, §2, §3, §4, §5

Candida glabrata strains = assay: Example N: MIC and MFC (CLSI) against Candida glabrata; type: cell-based; conditions: Nakaseomyces glabratus; for MIC: read-out: MIC 100%; for MFC: range over Candida glabrata strains, in 48 hr
Method: as §1, §2, §3, §4, §5

[5] = topical ointment 0.06% active drug (dexamethasone 0.03%, tacrolimus 0.1%)
[6] = read-out: IC50, uM (concentration for 50% of inhibition), OD of 26 hour reading, 30° C., XLfit
[7] = OD of 26 hour reading, 30° C., XLfit

SMILES | IC50 [2, 6] [µM] | MIC [2, 7] [µM] | MIC [3] [µg/mL] | MFC [3] [µg/mL] | MIC50 ([4]; 24 h) [µg/mL] | MIC ([4]; 24 h) [µg/mL] | MIC50 ([4]; 48 h) [µg/mL] | MIC ([4]; 48 h) [µg/mL] | MIC (Candida albicans strains; 24 hr) [µg/mL] | MIC (Candida albicans strains; 48 hr) [µg/mL] | MFC (Candida albicans strains; 48 hr) [µg/mL] | MIC50 (Rhizopus strains; 24 h) [µg/mL] | MIC (Rhizopus strains; 24 h) [µg/mL] | MIC50 (Rhizopus strains; 48 h) [µg/mL] | MIC (Rhizopus strains; 48 h) [µg/mL] | MIC50 (Candida glabrata strains; 24 h) [µg/mL] | MIC (Candida glabrata strains; 24 h) [µg/mL] | MIC50 (Candida glabrata strains; 48 h) [µg/mL] | MIC (Candida glabrata strains; 48 h) [µg/mL] | MFC (Candida glabrata strains) [µg/mL] | other results
c1ccc(Oc2cccc(CNc3ccnc4ccccc34)c2)cc1 [AF, N-(3-Phenoxybenzyl)quinolin-4-amine] |  |  |  |  |  |  |  |  |  |  |  |  |  |  |  |  |  |  |  |  | Ear thickness, Mean ± SEM [1, 5]: 0.355 ± 0.005; Ear thickness, Mean ± SEM ([1]; topical ointment AF 0.6%): 0.390 ± 0.008; D BW ([1]; mouse, in vivo): -0.4 g; D BW (g) ([1]; mouse, in vivo): +0.4 g; Hair growth on the imiquimod-affected head area, in words ([1]; mouse, in vivo): hair growth was maintained; PASI Score, Mean ± SEM [1, 5]: 3.575 ± 0.158; PASI Score, Mean ± SEM ([1]; topical ointment AF 0.6%): 4.875 ± 0.155
CCCCCCOc1cccc(CNc2ncnc3ccccc23)c1 [AK, N-[3-(Hexyloxy)benzyl]quinazolin-4-amine] | 0.25 | 19.5 (≈ 6.54 µg/mL) |  |  |  |  |  |  |  |  |  |  |  |  |  |  |  |  |  |  | 
CCCCOCCCCCCCCCCNc1ccnc2ccccc12 [AM, N-(10-Butoxydecyl)quinolin-4-amine] | 1.57 | 10.5 (≈ 3.75 µg/mL) | 2 to 4 (≈ 5.61 to 11.2 µM) | 8 (≈ 22.4 µM) | 0.5 to 1 (≈ 1.4 to 2.8 µM) | 1 to 2 (≈ 2.8 to 5.61 µM) | 2 to 4 (≈ 5.61 to 11.2 µM) | 4 (≈ 11.2 µM) | 2 to 4 (≈ 5.61 to 11.2 µM) | 2 to 4 (≈ 5.61 to 11.2 µM) | 4 (≈ 11.2 µM) | 1 to 2 (≈ 2.8 to 5.61 µM) | 2 to 4 (≈ 5.61 to 11.2 µM) | 2 to 4 (≈ 5.61 to 11.2 µM) | 4 (≈ 11.2 µM) | 1 to 2 (≈ 2.8 to 5.61 µM) | 2 to 4 (≈ 5.61 to 11.2 µM) | 2 to 4 (≈ 5.61 to 11.2 µM) | 2 to 4 (≈ 5.61 to 11.2 µM) | 4 to 8 (≈ 11.2 to 22.4 µM) | cidal activity (MFC within 4 dilutions of the MIC), in words ([4]; 3 strains): cidal against one of the A. fumigatus strains (MRL 28397); MFC ([4]; range over Aspergillus fumigatus strains, in 48 hr): 4 to 32 µg/mL (≈ 11.2 to 89.7 µM); IC50 ([2]; Macrophage, direct inhibition, values of the earlier study (Table 25), read-out: IC50 value (μM) for inhibition of fungal growth, No macrophages): 1.57 µM; MFC (Rhizopus strains; range over Rhizopus strains, in 48 hr): 8 to 32 µg/mL (≈ 22.4 to 89.7 µM)
CCCCCCOCCCCCCCCNc1ccnc2cc(Cl)ccc12 [AW, 7-Chloro-N-[8-(hexyloxy)octyl]quinolin-4-amine] | 1.74 | 13.8 (≈ 5.38 µg/mL) | 2 (≈ 5.12 µM) | 2 to 8 (≈ 5.12 to 20.5 µM) | 2 to 4 (≈ 5.12 to 10.2 µM) | 4 to 8 (≈ 10.2 to 20.5 µM) | 8 (≈ 20.5 µM) | 16 (≈ 40.9 µM) | 4 to 8 (≈ 10.2 to 20.5 µM) | 8 (≈ 20.5 µM) | 8 to 32 (≈ 20.5 to 81.8 µM) | 4 (≈ 10.2 µM) | 4 to 8 (≈ 10.2 to 20.5 µM) | 4 to 8 (≈ 10.2 to 20.5 µM) | 8 (≈ 20.5 µM) | 4 (≈ 10.2 µM) | 8 (≈ 20.5 µM) | 8 (≈ 20.5 µM) | 8 to 16 (≈ 20.5 to 40.9 µM) | 16 to 32 (≈ 40.9 to 81.8 µM) | 
